Patent US10155985B2, “Evaluation of eosinophilic esophagitis” (CHILDREN'S HOSPITAL MEDICAL CENTER, priority 2004, dated 2018)

B1: SEQ_ID_#58 (nucleic acid, listed as Homo sapiens)
DNA: ATGAAGGCCAACTACAGCGCAGAGGAGCGCTTTCTCCTGCTGGGTTTCTCCGACTGGCCTTCCCTGCAGCCGGTCCTCTTCGCCCTTGTCCTCCTGTGCTACCTCCTGACCTTGACGGGCAACTCGGCGCTGGTGCTGCTGGCGGTGCGCGACCCGCGCCTGCACACGCCCATGTACTACTTCCTCTGCCACCTGGCCTTGGTAGACGCGGGCTTCACTACTAGCGTGGTGCCGCCGCTGCTGGCCAACCTGCGCGGACCAGCGCTCTGGCTGCCGCGCAGCCACTGCACGGCCCAGCTGTGCGCATCGCTGGCTCTGGGTTCCGCCGAATGCGTCCTCCTGGCGGTGATGGCTCTGGACCGCGCGGCCGCAGTGTGCCGCCCGCTGCGCTATGCGGGGCTCGTCTCCCCGCGCCTATGTCGCACGCTGGCCAGCGCCTCCTGGCTAAGTGGCCTCACCAACTCGGTTGCGCAAACCGCGCTCCTGGCTGAGCGGCCGCTGTGCGCGCCCCGCCTGCTGGACCACTTCATCTGTGAGCTGCCGGCGTTGCTCAAGCTGGCCTGCGGAGGCGACGGAGACACTACCGAGAACCAGATGTTCGCCGCCCGCGTGGTCATCCTGCTGCTGCCGTTTGCCGTCATCCTGGCCTCCTACGGTGCCGTGGCCCGAGCTGTCTGTTGCATGCGGTTCAGCGGAGGCCGGAGGAGGGCGGTGGGCACGTGTGGGTCCCACCTGACAGCCGTCTGCCTGTTCTACGGCTCGGCCATCTACACCTACCTGCAGCCCGCGCAGCGCTACAACCAGGCACGGGGCAAGTTCGTATCGCTCTTCTACACCGTGGTCACACCTGCTCTCAACCCGCTCATCTACACCCTCAGGAATAAGAAAGTGAAGGGGGCAGCGAGGAGGCTGCTGCGGAGTCTGGGGAGAGGCCAGGCTGGGCAGTGA

test system: EE transcriptome; assay: Genome-wide microarray transcript profiling of esophageal biopsies, EE patients vs normal individuals (EE transcriptome); conditions: transcript level in esophageal biopsies of EE patients (n=76) compared to normal individuals (n=13); Affymetrix Human Genome U133 plus 2; p<0.01
Protocol: Esophageal tissue obtained from patients previously diagnosed with EE was analyzed. Diagnosis was based on analysis of excised tissue from endoscopic biopsy. Tissues from patients with EE, as well as patients not having EE (controls) were subjected to genome-wide microarray transcript profiling (Affymetrix GeneChip). All work was performed at the Core facility at Children's Hospital Medical Center (Cincinnati Ohio).
Briefly, RNA quality was first assessed using the Agilent bioanaiyzer (Agilent Technologies, Palo Alto Calif.). Only mRNA having a ratio of 28S/18S between 1.3 and 2 were subsequently used. RNA was converted to cDNA with Superscript choice for cDNA synthesis (Invitrogen, Carlsbad Calif.) and subsequently converted to biotinylated cRNA with Enzo High Yield RNA Transcript labeling kit (Enzo Diagnostics, Farmingdale N.Y.). After hybridization to the GeneChip (Affymetrix, Santa Clara Calif.), the chips were automatically washed and stained with streptavidin-phycoerythrin using a fluidics system. The chips were scanned with a Hewlett Packard GeneArray Scanner. Over 30,000 unique genes were screened.
Levels of gene transcripts were determined from data image files, using algorithms in the Microarray Analysis Suite software (Affymetrix). Levels from chip to chip were compared by global scaling. Each gene was typically represented by a probe set of 16 to 20 probe pairs. Each probe pair consisted of a perfect match oligonucleotide and a mismatch oligonucleotide that contained a one base mismatch at a central position. Two measures of gene expression were used, absolute call and average difference. Absolute call is a qualitative measure in which each gene is assigned a call of present, marginal or absent, based on the hybridization of the RNA to the probe set. Average difference is a quantitative measure of the level of gene expression, calculated by taking the difference between […] of every probe pair and averaging the differences over the entire probe set. Data were normalized and an EE transcriptome gene list was created with results having p<0.01 (Welch t-test with or without false rate discovery) and ≥1.5-fold change.
For evaluation of EE using clinical and/or physical assessment, biopsy tissues (obtained from the distal esophagus during routine endoscopy) were submerged in formalin for routine pathological analysis with hematoxylin and eosin staining. Diagnosis was established based on the maximum eosinophil count per high power field (hpf) and basal layer expansion according to method known in the art (e.g., established criteria in Rothenberg et al., Pathogenesis and clinical features of eosinophilic esophagitis. J Allergy Clin Immunol 108 (2001) 891; Attwood et al., Esophageal eosinophilia with dysphagia. A distinct clinicopathologic syndrome. Dig Dis Sci 38 (1993)109; Fox et al., Eosinophilic esophagitis: its not just kid's stuff. Gastrointest Endosc 56 (2002) 26, each of which is expressly incorporated by reference herein in its entirety. Normal individuals (NL), n=13, served as a control and were defined as having 0 eosinophils/hpf and no basal layer expansion. Individuals with EE (n=76) were defined as having >24 eosinophils/hpf and extensive basal layer hyperplasia (expansion to about >⅓ of epithelium).
The data were analyzed by cluster analysis and ordered (standard correlation (A) and distance (B)) using Genespring software. […] Each column represented a separate individual and each line a gene. RNA from each patient was subjected to chip analysis using Affymetrix Human Genome U133 GeneChip plus 2.

Row | Molecule | Fold Change
1 | ACSL5 | 2.745
2 | ADAM28 | 2.613
3 | SAMSN1 | 7.119
4 | SCIN | 3.17
5 | SCUBE1 | 2.689
6 | SCUBE2 | 5.502
7 | SDPR | 2.293
8 | SE57-1 | 4.055
9 | SEC6L1 | 8.878
10 | SECTM1 | 3.282
11 | SEPX1 | 2.611
12 | SERPINB4 | 4.328
13 | SFRP1 | 4.098
14 | SGK | 3.139
15 | SH2D1B | 3.098
16 | SH3RF2 | 3.122
17 | SIDT1 | 4.822
18 | SIGLEC6 | 3.199
19 | SLC15A1 | 2.792
20 | B1 | 4.822

same assay, conditions: transcript level in esophageal biopsies of EE patients compared to normal individuals (NL); Affymetrix Human Genome U133 plus 2; p<0.01; >1 up-regulated, <1 down-regulated

Row | Molecule | Fold Change
21 | 13CDNA73 | 0.632
22 | AADAT | 0.608
23 | ABCC1 | 0.622
24 | ABHD6 | 0.609
25 | ACADL | 0.588
26 | ACOX2 | 0.592
27 | ADAMTS17 | 0.631
28 | ADAR | 1.509
29 | SAMD9 | 0.634
30 | SC5DL | 0.6
31 | SCEL | 0.631
32 | SCYL2 | 1.507
33 | SEC24C | 0.647
34 | SF3B3 | 0.655
35 | SFRS5 | 0.666
36 | SGPL1 | 0.63
37 | SH3BP5 | 0.622
